biological target: T1, human PAH with the R408W mutation (Homo sapiens, UniProt P00439, R408W); experiment: Cell Based Phenylalanine Flux Assay; conditions: A375 cells expressing human R408W PAH; 24 hrs compound incubation; 13C-Tyrosine by LC-MS; average where tested multiple times; read-out: AC50
T1 construct: expressed in transfected cells
T1 sequence (P00439 1-452 R408W): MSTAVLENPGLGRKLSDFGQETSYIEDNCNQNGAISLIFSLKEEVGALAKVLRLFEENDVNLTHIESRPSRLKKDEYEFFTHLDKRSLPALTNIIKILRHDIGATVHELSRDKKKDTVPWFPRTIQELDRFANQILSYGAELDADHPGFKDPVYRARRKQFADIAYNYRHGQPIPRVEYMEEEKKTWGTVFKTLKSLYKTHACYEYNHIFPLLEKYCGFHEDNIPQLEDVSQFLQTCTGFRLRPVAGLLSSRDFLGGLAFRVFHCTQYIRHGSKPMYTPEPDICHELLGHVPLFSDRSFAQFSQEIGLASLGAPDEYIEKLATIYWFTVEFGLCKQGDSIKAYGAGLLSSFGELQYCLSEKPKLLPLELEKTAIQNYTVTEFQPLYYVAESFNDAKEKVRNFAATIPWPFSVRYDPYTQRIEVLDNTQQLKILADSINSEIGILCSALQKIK

How did the AC50 turn out when CC(C)(O)c1ncc(C(=O)N2CCc3[nH]cnc3[C@@H]2c2nc3ccccc3s2)o1 [Example 1447, (R)-(4-(benzo[d]thiazol-2-yl)-6,7-dihydro-1H-imidazo[4,5-c]pyridin-5(4H)-yl)(2-(2-hydroxypropan-2-yl)oxazol-5-yl)methanone] was run?
The AC50 was 1 to 5 µM.

For Cc1cnn(C)c1-c1nnc(C(=O)N2CCc3[nH]cnc3[C@H]2c2nc3ccccc3s2)o1 [Example 1947], which AC50 is on record?
Its AC50 is less than 0.5 µM.

How did the AC50 turn out when Cc1n[nH]cc1-c1nnc(C(=O)N2CCc3[nH]cnc3[C@H]2c2nc3ccccc3s2)o1 [Example 1941] was run?
Its AC50 is less than 0.5 µM.

How did the AC50 turn out when C[C@H]1CN(C(=O)c2nnc(-c3ccccn3)o2)[C@H](c2nc3ccccc3s2)c2nc[nH]c21 [Example 1589, ((4S,7S)-4-(benzo[d]thiazol-2-yl)-7-methyl-6,7-dihydro-1H-imidazo[4,5-c]pyridin-5(4H)-yl)(5-(pyridin-2-yl)-1,3,4-oxadiazol-2-yl)methanone] was run?
Its AC50 is 0.5 to 1 µM.

With O=C(c1nc2cc(F)ccc2s1)N1CCc2[nH]cnc2[C@@H]1c1nc2ccccc2s1 [Example 1096, (R)-(4-(benzo[d]thiazol-2-yl)-6,7-dihydro-1H-imidazo[4,5-c]pyridin-5(4H)-yl)(5-fluorobenzo[d]thiazol-2-yl)methanone] as the molecule, how does the AC50 read?
Its AC50 is greater than 5 µM.

For CC(O)c1nc(Cl)c(C(=O)N2CCc3[nH]cnc3[C@@H]2c2nc3c(F)cccc3s2)o1 (single isomer, unassigned) [Example 2081], which AC50 is on record?
Its AC50 is 1 to 5 µM.

Which AC50 does the source give for O=C(c1nncs1)N1CCc2[nH]cnc2[C@@H]1c1nc2ccccc2s1 [Example 1067, (R)-(4-(benzo[d]thiazol-2-yl)-6,7-dihydro-1H-imidazo[4,5-c]pyridin-5(4H)-yl)(1,3,4-thiadiazol-2-yl)methanone] here?
The AC50 was greater than 5 µM.

For CC(C)(O)c1nc(C2CC2)c(C(=O)N2CCc3[nH]cnc3[C@H]2c2nc3c(F)cccc3s2)o1 [Example 1537, (S)-(4-cyclopropyl-2-(2-hydroxypropan-2-yl)oxazol-5-yl)(4-(4-fluorobenzo[d]thiazol-2-yl)-6,7-dihydro-1H-imidazo[4,5-c]pyridin-5(4H)-yl)methanone], which AC50 is on record?
The AC50 was less than 0.5 µM.

With O=C(c1cnn2c(Br)cccc12)N1CCc2[nH]cnc2[C@@H]1c1nc2ccc(F)cc2s1 [Example 1150, (R)-(7-bromopyrazolo[1,5-a]pyridin-3-yl)(4-(6-fluorobenzo[d]thiazol-2-yl)-6,7-dihydro-1H-imidazo[4,5-c]pyridin-5(4H)-yl)methanone] as the molecule, how does the AC50 read?
Its AC50 is greater than 5 µM.

With Cc1nc(C(F)(F)F)oc1C(=O)N1CCc2[nH]cnc2[C@H]1c1nc2ccccc2s1 [Example 1393] as the molecule, how does the AC50 read?
The AC50 was less than 0.5 µM.

How did the AC50 turn out when Cn1cc(C(=O)N2CCc3[nH]cnc3[C@H]2c2nc3c(F)cccc3s2)c(Cl)n1 [Example 1644] was run?
Its AC50 is less than 0.5 µM.

O=C(c1cnc(-c2ccccc2)s1)N1CCc2[nH]cnc2[C@H]1c1nc2ccccc2s1 [Example 1203] was tested. Which AC50 did it give?
The AC50 was 0.5 to 1 µM.

Which AC50 does the source give for O=C(CC1CC1)N1CCc2[nH]cnc2[C@H]1c1nc2cc(F)ccc2s1 [Example 1135, (S)-2-cyclopropyl-1-(4-(5-fluorobenzo[d]thiazol-2-yl)-6,7-dihydro-1H-imidazo[4,5-c]pyridin-5(4H)-yl)ethanone] here?
Its AC50 is 0.5 to 1 µM.

How did the AC50 turn out when Cc1ncoc1C(=O)N1CCc2[nH]cnc2[C@@H]1c1nc2ccccc2s1 [Example 1162, (R)-(4-(benzo[d]thiazol-2-yl)-6,7-dihydro-1H-imidazo[4,5-c]pyridin-5(4H)-yl)(4-methyloxazol-5-yl)methanone] was run?
The AC50 was 1 to 5 µM.

For O=C(CC1(O)CCC1)N1CCc2[nH]cnc2[C@H]1c1nc2ccccc2s1 [Example 1657], which AC50 is on record?
The AC50 was less than 0.5 µM.

same assay, conditions: A375 cells expressing human R408W PAH; 24 hrs with compound; 13C-Tyrosine by LC-MS; average where tested multiple times; read-out: AC50

How did the AC50 turn out when Cc1nc(-c2ccccn2)sc1C(=O)N1CCc2[nH]cnc2C1c1nc2ccccc2s1 (stereo not shown) was run?
The AC50 was 1 to 5 µM.

Which AC50 does the source give for COCc1nnc(C(=O)N2CCc3[nH]cnc3C2c2nc3ccccc3s2)o1 (stereo not shown) here?
The AC50 was 1 to 5 µM.

With Cn1nc(C2CC2)cc1C(=O)N1CCc2[nH]cnc2C1c1nc2c(F)cccc2s1 (stereo not shown) as the molecule, how does the AC50 read?
The AC50 was 1 to 5 µM.

Which AC50 does the source give for O=C(c1nnc(C2CNC2)o1)N1CCc2[nH]cnc2C1c1nc2ccccc2s1 (stereo not shown) here?
Its AC50 is greater than 5 µM.

Reference: patent US20250171438A1 (Agios Pharmaceuticals, Inc., priority 2022, published 2025)
